{"source": "patent US20250043349A1", "about": "“DEORPHANIZING ODORS USING SINGLE CELL SEQUENCING” (PRESIDENT AND FELLOWS OF HARVARD COLLEGE, priority 2021, published 2025)", "key": {"[1]": {"system": "acetophenone-responsive OSN subtypes", "assay": "Environment switch followed by Act-Seq", "format": "in vivo, mouse", "settings": "2 weeks after switch from home cage to new odor environment", "protocol": "To examine environment-dependent changes in gene expression and their effects on odor-evoked responses. Act-Seq was performed 2 weeks after environment switches. Adult mice (6-12 weeks old) were group-housed in the regular home-cage environment for at least one week before the transfer to their novel environments. Individual mice were transferred to a new disposable cage containing materials for a novel environment in the satellite animal facility. Two different novel environments were used, with each containing non-overlapping contents; Environment A (paper bedding, hay, dried flowers (such as marigold), peanuts, seeds (e.g., sunflower seeds, pumpkin seeds), puffed rice), and Environment B (garden soil, aspen shavings, coconut husks, dried fruits (e.g., berries, mango, pineapple), dried vegetables (e.g., green peas, corn, bell peppers), millet, fresh fruits (banana, apple, peach), corn flakes). Mice were singly-housed throughout the entire 2 weeks and were transferred to newly prepared environmental cages every 12 hours to minimize the contributions of any murine odors, which are likely the predominant odorants present within standard home-cage housing environments. After 2 weeks, individual mice were transferred to new empty disposable cages, and Act-Seq using acetophenone was performed as above."}, "[2]": {"system": "OSN subtypes (odorant receptors, ORs)", "assay": "Act-Seq: scSeq of olfactory epithelium after two-hour odor exposure (IEG expression, activated ORs, activation score)", "format": "in vivo, mouse", "protocol": "Act-Seq (Wu et al., 2017) was performed following odor exposure to quantify odor-evoked responses in each OSN subtype (defined by their expressed OR) across the entire OR repertoire. Mice were habituated to a reversed light cycle for at least for 1 week before odor exposure, transferred to a new disposable cage with regular bedding/food and kept overnight in a satellite animal facility. On the experimental day, each mouse was first transferred to a new empty disposable cage during the dark cycle and habituated for 20 minutes. Empty cages were used to avoid any activation by odorants present within the environments in which the mice were housed. Odors were added to a piece of filter paper (100 μL of odorant) in a 35 mm petri dish and a cotton ball (200 μL of odorant) and placed in each cage. After 2 hours, mice were euthanized, and dissociation was performed as described below. Odors used in this study were as follows. Dipropylene glycol (DPG, control solvent), and 10% of acetophenone, octanal, 2-hydroxy acetophenone, 4-methyl acetophenone, and methyl salicylate. As a control, mice were exposed to DPG alone for 30 min. This control condition was used to account for any drift in transcriptomes during the overnight housing and habituation periods prior to odor exposure and designed to capture the transcriptome in the state it would have been in the odor-exposed animals prior to odor exposure. […] Act-Seq was also performed using lower concentrations of acetophenone (1.0, 0.1, 0.01%) and 2-hydroxy acetophenone (0.1%, 0.01%). All odor dilutions were made with DPG, and all odors and DPG were obtained from Sigma. To assess the persistence of any transcriptional changes observed as a result of odor exposure, a cohort of mice was exposed to acetophenone or DPG for 2 hours, transferred to new clean regular home cages, and subjected to scSeq after an additional 22 hours.\nThe main olfactory epithelium was dissected in Earle's Balanced Salt Solution (EBSS, pre-treated with carbogen for at least 5 minutes before each use, Worthington), then transferred to a round-bottomed glass dish containing 750 μL of papain solution (one vial of Papain (Worthington) dissolved in 5 mL of EBSS and then equilibrated 10 minutes at 37° C.) and 100 μL of DNase solution (one vial of DNase-I (Worthington) dissolved in 500 μL of EBSS). Bone was removed from the epithelium under a dissecting microscope and the resulting epithelial tissue was placed in a 5 mL tube (Becton Dickinson) with an additional 1.75 mL of Papain solution and 200 μL of DNase-I solution and rocked gently for-60 minutes at 37° C. The tissue was then gently triturated with a 5 mL pipette 10-15 times, passed through a 40 μm cell strainer (Becton Dickinson), and washed with 1 mL of Hibernate-A medium containing 10% Fetal Bovine Serum (FBS. GIBCO). Filtered cells were transferred to a new 5 mL tube and centrifuged 5 minutes at 300×g. The supernatant was decanted, the cells were washed once with 4 mL Hibernate-A containing 10% FBS and resuspended in 1 mL Hibernate-A containing 0.2% FBS. Importantly, each of the solutions above contained transcriptional inhibitors (5 μg/mL of Actinomycin D, 10 μg/mL of Anisomycin and 10 μM of Triptolide, all obtained from Sigma) for all experiments, especially the Act-Seq experiments, except where noted.\nOSN subtypes that were responsive to odorants were identified via a two-step process. First, individual OSNs (as defined by the expressed OR) were determined as activated based on their mean z-scored immediate early genes (IEG) expression. A set of 10 IEGs were used (Btg2, Egr1, Fos, Fosb, Gm13889, Junb, Nr4a1, Nr4a2, Pcdh10, and Srxn1). […] The set of 10 IEGs was used since even though all of the IEGs were specific to acute activation by odors, they were still only detected in a minority of cells due to the sparse nature of scSeq. […]"}, "[3]": {"settings": "acetophenone concentration series 0.01-10%"}}}
{"smiles": "CC(=O)c1ccccc1", "note": "[acetophenone]", "values": [{"measurement": "acetophenone-driven OSN activation scores across odor environments", "setting": "[1]", "value": "altered acetophenone-driven OSN activation scores in an environment-dependent manner"}, {"measurement": "percent of cells activated per OR on average, 5 partially activated ORs identified only by phospho-S6", "setting": "[2]; Act-Seq, ORs identified as acetophenone receptors", "value": 43.8, "unit": "%"}, {"measurement": "overlap between ORs activated by ACE and OCT, odds ratio", "setting": "[2]; Fisher's exact test, overlap at chance levels", "value": 1.42}, {"measurement": "activation scores of acetophenone-responsive OSNs with increasing concentrations", "setting": "[2]; [3]", "value": "tonically increased"}, {"measurement": "number of ORs activated with increasing concentrations", "setting": "[2]; [3]", "value": "tonically increased"}, {"measurement": "z-scored expression of 10 immediate early genes (IEGs) for each OSN subtype, odor vs control", "setting": "[2]; odor vs control (DPG) conditions", "value": "higher in the odor conditions"}]}
